According to patent publication US20060189602A1, “Pyridazinone compounds” (Anadys Pharmaceuticals, Inc., priority 2004, published 2006):

Each compound was assayed against HCV NS5B polymerase (Hepatitis C virus genotype 1b, UniProt P26663) (assay: NS5B Polymerase Inhibition Assay). Settings: 50 nM enzyme, [α-33P]GTP, oligo (rG13)/poly rC, 75 min at 28° C.
Type: biochemical
Protocol: NS5B Polymerase Inhibition Assay
Compounds were tested for HCV polymerase inhibition. Assays were performed in a 96-well streptavidin-coated FlashPlate using 50 nM enzyme, 0.5 μCi of [α-^33P]GTP, 0.63 μM GTP, and 250 nM 5′biotinylated oligo (rG13)/poly rC in 20 mM Tris-HCl, pH 7.5, 5 mM MgCl2, 20 mM NaCl, 5 mM dithiothreitol, and 0.1 g/L BSA. The reaction was stopped by aspiration after 75 min at 28° C. and the plate was washed several times. After washing, incorporated radioactivity was counted using a Microbeta scintillation counter.

HCV NS5B polymerase, sequence (P26663 2420-3010): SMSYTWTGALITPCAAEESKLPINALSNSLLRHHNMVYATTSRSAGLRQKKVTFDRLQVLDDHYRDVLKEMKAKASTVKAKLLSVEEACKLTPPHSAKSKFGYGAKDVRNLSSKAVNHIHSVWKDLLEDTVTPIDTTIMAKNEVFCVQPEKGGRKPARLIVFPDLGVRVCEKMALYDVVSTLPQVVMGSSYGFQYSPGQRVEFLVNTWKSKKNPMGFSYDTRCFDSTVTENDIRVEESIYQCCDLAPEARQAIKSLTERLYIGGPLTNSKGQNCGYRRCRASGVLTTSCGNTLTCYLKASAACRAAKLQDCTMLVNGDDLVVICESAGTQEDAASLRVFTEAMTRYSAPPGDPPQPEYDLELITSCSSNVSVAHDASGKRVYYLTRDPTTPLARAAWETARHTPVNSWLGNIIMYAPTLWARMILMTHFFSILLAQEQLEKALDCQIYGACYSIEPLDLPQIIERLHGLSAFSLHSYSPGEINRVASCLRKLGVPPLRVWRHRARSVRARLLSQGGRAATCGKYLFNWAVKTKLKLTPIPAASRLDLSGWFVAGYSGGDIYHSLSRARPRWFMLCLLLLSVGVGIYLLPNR

SMILES	IC50
CCCCn1nc(C(C)C)c(O)c(C2=Nc3ccc(O)cc3S(=O)(=O)N2)c1=O [Compound 11, 2-Butyl-5-hydroxy-4-(7-hydroxy-1,1-dioxo-1,2-dihydro-1λ^6-ben-zo[1,2,4]thiadiazin-3-yl)-6-isopropyl-2H-pyridazin-3-one]	< 10 µM
COc1ccc2c(c1)S(=O)(=O)NC(c1c(O)c(-c3cccs3)nn(Cc3ccccc3)c1=O)=N2 [Compound 5, 2-Benzyl-5-hydroxy-4-(7-methoxy-1,1-dioxo-1,2-dihydro-1λ^6-ben-zo[1,2,4]thiadiazin-3-yl)-6-thiophen-2-yl-2H-py-ridazin-3-one]	10 to 50 µM
CCCc1nn(CCC(C)C)c(=O)c(C2=Nc3ccc(O)cc3S(=O)(=O)N2)c1O [Compound 46, 5-Hydroxy-4-(7-hydroxy-1,1-dioxo-1,2-dihydro-1λ^6-ben-zo[1,2,4]thiadiazin-3-yl)-2-(3-methyl-butyl)-6-propyl-2H-py-ridazin-3-one]	< 10 µM
CCCCn1nc(CCC(C)C)c(O)c(C2=Nc3ccc(O)cc3S(=O)(=O)N2)c1=O [Compound 38, 2-Butyl-5-hydroxy-4-(7-hydroxy-1,1-dioxo-1,2-dihydro-1λ^6-ben-zo[1,2,4]thiadiazin-3-yl)-6-(3-methyl-butyl)-2H-pyridazin-3-one]	< 10 µM
CC(C)CCn1nc(-c2cccs2)c(O)c(C2=Nc3ccc(OCC(=O)N4CCC(N)C4)cc3S(=O)(=O)N2)c1=O (centres unmarked) [Compound 21, 4-{7-[2-(3-Amino-pyrrolidin-1-yl)-2-oxo-ethoxy]-1,1-dioxo-1,2-di-hydro-1λ^6-benzo[1,2,4]thiadiazin-3-yl}-5-hydroxy-2-(3-methyl-butyl)-6-thiophen-2-yl-2H-pyridazin-3-one]	< 10 µM
COc1ccc2c(c1)S(=O)(=O)NC(c1c(O)c(CCC#N)nn(CCC(C)(C)C)c1=O)=N2 [Compound 58, 3-[1-(3,3-Dimethyl-butyl)-4-hydroxy-5-(7-methoxy-1,1-dioxo-1,2-di-hydro-1λ^6-benzo[1,2,4]thiadiazin-3-yl)-6-oxo-1,6-di-hydro-pyridazin-3-yl]-propionitrile]	10 to 50 µM
CCCCn1nc(C(C)C)c(O)c(C2=Nc3ccc(OC)cc3S(=O)(=O)N2)c1=O [Compound 10, 2-Butyl-5-hydroxy-6-isopropyl-4-(7-methoxy-1,1-dioxo-1,2-di-hydro-1λ^6-benzo[1,2,4]thiadiazin-3-yl)-2H-pyridazin-3-one]	10 to 50 µM
COc1ccc2c(c1)S(=O)(=O)NC(c1c(O)c(C(C)C)nn(CCC(C)C)c1=O)=N2 [Compound 26, 5-Hydroxy-6-isopropyl-4-(7-methoxy-1,1-dioxo-1,2-dihydro-1λ^6-ben-zo[1,2,4]thiadiazin-3-yl)-2-(3-methyl-butyl)-2H-py-ridazin-3-one]	10 to 50 µM
CC(C)CCn1nc(-c2cccs2)c(O)c(C2=Nc3ccncc3S(=O)(=O)N2)c1=O [Compound 30, 4-(1,1-Dioxo-1,2-dihydro-1λ^6-pyrido[4,3-e][1,2,4]thiadiazin-3-yl)-5-hy-droxy-2-(3-methyl-butyl)-6-thiophen-2-yl-2H-py-ridazin-3-one]	< 10 µM
COc1ccc2c(c1)S(=O)(=O)NC(c1c(O)c(-c3cccs3)nn(CCC(C)(C)C)c1=O)=N2 [Compound 56, 2-(3,3-Dimethyl-butyl)-5-hydroxy-4-(7-methoxy-1,1-dioxo-1,2-di-hydro-1λ^6-benzo[1,2,4]thiadiazin-3-yl)-6-thiophen-2-yl-2H-py-ridazin-3-one]	< 10 µM
COc1ccc2c(c1)S(=O)(=O)NC(c1c(O)c(-c3nccs3)nn(CCC(C)C)c1=O)=N2 [Compound 54, 5-Hydroxy-4-(7-methoxy-1,1-dioxo-1,2-dihydro-1λ^6-ben-zo[1,2,4]thiadiazin-3-yl)-2-(3-methyl-butyl)-6-thiazol-2-yl-2H-py-ridazin-3-one]	< 10 µM
CC(C)(C)CCn1nc(C(C)(C)C)c(O)c(C2=Nc3ccc(O)cc3S(=O)(=O)N2)c1=O [Compound 67, 6-tert-Butyl-2-(3,3-dimethyl-butyl)-5-hydroxy-4-(7-hydroxy-1,1-di-oxo-1,2-dihydro-1λ^6-benzo[1,2,4]thiadiazin-3-yl)-2H-py-ridazin-3-one]	< 10 µM
O=c1c(C2=Nc3ccc(O)cc3S(=O)(=O)N2)c(O)c(-c2cccs2)nn1Cc1ccccc1 [Compound 6, 2-Benzyl-5-hydroxy-4-(7-hydroxy-1,1-dioxo-1,2-dihydro-1λ^6-ben-zo[1,2,4]thiadiazin-3-yl)-6-thiophen-2-yl-2H-pyridazin-3-one]	< 10 µM
O=c1c(C2=Nc3ccc(O)cc3S(=O)(=O)N2)c(O)c(-c2cccs2)nn1CCC1CC1 [Compound 7, 2-(2-Cyclopropyl-ethyl)-5-hydroxy-4-(7-hydroxy-1,1-dioxo-1,2-di-hydro-1λ^6-benzo[1,2,4]thiadiazin-3-yl)-6-thiophen-2-yl-2H-py-ridazin-3-one]	< 10 µM
CCCCn1nc(-c2ccccc2)c(O)c(C2=Nc3ccc(OC)cc3S(=O)(=O)N2)c1=O [Compound 15, 2-Butyl-5-hydroxy-4-(7-methoxy-1,1-dioxo-1,2-dihydro-1λ^6-ben-zo[1,2,4]thiadiazin-3-yl)-6-phenyl-2H-pyridazin-3-one]	10 to 50 µM
COc1ccc2c(c1)S(=O)(=O)NC(c1c(O)c(-c3cccs3)nn(CCC3CC3)c1=O)=N2 [Compound 3, 2-(2-Cyclopropyl-ethyl)-5-hydroxy-4-(7-methoxy-1,1-dioxo-1,2-di-hydro-1λ^6-benzo[1,2,4]thiadiazin-3-yl)-6-thiophen-2-yl-2H-py-ridazin-3-one]	< 10 µM
CCCCn1nc(C(C)C)c(O)c(C2=Nc3ccc(OCC(N)=O)cc3S(=O)(=O)N2)c1=O [Compound 12, 2-[3-(2-Butyl-5-hydroxy-6-isopropyl-3-oxo-2,3-dihydro-py-ridazin-4-yl)-1,1-dioxo-1,2-dihdyro-1λ^6-ben-zo[1,2,4]thiadiazin-7-yloxy]-actamide]	< 10 µM
CCCCc1nn(CCC(C)C)c(=O)c(C2=Nc3ccc(OC)cc3S(=O)(=O)N2)c1O [Compound 35, 6-Butyl-5-hydroxy-4-(7-methoxy-1,1-dioxo-1,2-dihdyro-1λ^6-ben-zo[1,2,4]thiadiazin-3-yl)-2-(3-methyl-butyl)-2H-pyridazin-3-one]	< 10 µM
CC(C)CCc1nn(CCC(C)C)c(=O)c(C2=NS(=O)(=O)c3cc(OCC(N)=O)ccc3N2)c1O [Compound 51, 2-{3-[5-Hydroxy-2,6-bis-(3-methyl-butyl)-3-oxo-2,3-dihydro-py-ridazin-4-yl]-1,1-dioxo-1,2-dihydro-1λ^6-ben-zo[1,2,4]thiadiazin-7-yloxy}-acetamide]	< 10 µM
CCCCn1nc(CCC(C)C)c(O)c(C2=Nc3ccc(OCC(N)=O)cc3S(=O)(=O)N2)c1=O [Compound 39, 2-{3-[2-Butyl-5-hydroxy-6-(3-methyl-butyl)-3-oxo-2,3-di-hydro-pyridazin-4-yl]-1,1-dioxo-1,2-dihydro-1λ^6-ben-zo[1,2,4]thiadiazin-7-yloxy}-acetamide]	< 10 µM
COc1ccc2c(c1)S(=O)(=O)NC(c1c(O)c(C(C)(C)C)nn(CCC(C)(C)C)c1=O)=N2 [Compound 66, 6-tert-Butyl-2-(3,3-dimethyl-butyl)-5-hydroxy-4-(7-methoxy-1,1-di-oxo-1,2-dihydro-1λ^6-benzo[1,2,4]thiadiazin-3-yl)-2H-py-ridazin-3-one]	10 to 50 µM
CC(C)CCn1nc(C(C)C)c(O)c(C2=Nc3ccc(OCC(N)=O)cc3S(=O)(=O)N2)c1=O [Compound 33, 2-{3-[5-Hydroxy-6-isopropyl-2-(3-methyl-butyl)-3-oxo-2,3-di-hydro-pyridazin-4-yl]-1,1-dioxo-1,2-dihydro-1λ^6-ben-zo[1,2,4]thiadiazin-7-yloxy}-acetamide]	< 10 µM
CCCCc1nn(CCCC)c(=O)c(C2=Nc3ccc(O)cc3S(=O)(=O)N2)c1O [Compound 45, 2,6-Dibutyl-5-hydroxy-4-(7-hydroxy-1,1-dioxo-1,2-dihydro-1λ^6-ben-zo[1,2,4]thiadiazin-3-yl)-2H-pyridazin-3-one]	< 10 µM
CC(C)c1nn(CC2CCC2)c(=O)c(C2=Nc3ccccc3S(=O)(=O)N2)c1O [Compound 63, 2-Cyclobutylmethyl-4-(1,1-dioxo-1,2-dihydro-1λ^6-ben-zo[1,2,4]thiadiazin-3-yl)-5-hydroxy-6-isopropyl-2H-py-ridazin-3-one]	10 to 50 µM
Cc1ccc(-c2nn(CCC(C)(C)C)c(=O)c(C3=NS(=O)(=O)c4cc(OCC(N)=O)ccc4N3)c2O)s1 [Compound 64, 2-{3-[2-(3,3-Dimethyl-butyl)-5-hydroxy-6-(5-methyl-thiophen-2-yl)-3-ox-o-2,3-dihydro-pyridazin-4-yl]-1,1-dioxo-1,2-di-hydro-1λ^6-benzo[1,2,4]thiadiazin-7-yloxy}-acetamide]	< 10 µM
CCCCc1nn(CCC(C)C)c(=O)c(C2=Nc3ccc(O)cc3S(=O)(=O)N2)c1O [Compound 36, 6-Butyl-5-hydroxy-4-(7-hydroxy-1,1-dioxo-1,2-dihydro-1λ^6-ben-zo[1,2,4]thiadiazin-3-yl)-2-(3-methyl-butyl)-2H-pyridazin-3-one]	< 10 µM
CC(C)c1nn(CCC2CC2)c(=O)c(C2=Nc3ccccc3S(=O)(=O)N2)c1O [Compound 57, 2-(2-Cyclopropyl-ethyl)-4-(1,1-dioxo-1,2-dihydro-1λ^6-ben-zo[1,2,4]thiadiazin-3-yl)-5-hydroxy-6-isopropyl-2H-py-ridazin-3-one]	< 10 µM
CC(C)c1nn(Cc2ccccc2)c(=O)c(C2=Nc3ccccc3S(=O)(=O)N2)c1O [Compound 41, 2-Benzyl-4-(1,1-dioxo-1,2-dihydro-1λ^6-ben-zo[1,2,4]thiadiazin-3-yl)-5-hydroxy-6-isopropyl-2H-py-ridazin-3-one]	10 to 50 µM
COc1ccc2c(c1)S(=O)(=O)NC(c1c(O)c(-c3ccc(C)s3)nn(CCC(C)C)c1=O)=N2 [Compound 9, 5-Hydroxy-4-(7-methoxy-1,1-dioxo-1,2-dihydro-1λ^6-ben-zo[1,2,4]thiadiazin-3-yl)-2-(3-methyl-butyl)-6-(5-methyl-thio-phen-2-yl)-2H-pyridazin-3-one]	10 to 50 µM
